Reference: US10806726B2, “Methods of using indazole-3-carb oxamides and their use as Wnt/B-catenin signaling pathway inhibitors” (Samumed, LLC, priority 2016, dated 2020)

Tests used:
Format in all cases: cell-based
[1] = system: Wnt-responsive promoter driving firefly luciferase in SW480 cells; experiment: Wnt reporter (SP5 promoter-luciferase) screening assay in SW480 cells; conditions: Homo sapiens, 24-40 h, top concentration ten micromolar
Outline: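 SW480 (APC-mutant colon) cells stably transduced with lentiviral SP5-promoter (eight TCF/LEF sites) firefly luciferase, ~10,000 cells/well. Signals normalized to DMSO controls for EC50 fitting.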

[2] = system: primary human mesenchymal stem cells (hMSCs); experiment: Tenocyte differentiation screening in hMSCs (SCXA-positive cells, 4 days); conditions: 96 h, fold change over DMSO
Outline: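 Primary hMSCs at passage 3–6 were treated with compound, fixed and immunostained for SCXA, and SCXA-positive cells per well were counted by imaging. Counts were normalized to DMSO wells as fold change, averaged over triplicates, and EC50 was fitted, with high-dose values manually corrected for solubility.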

[3] = system: Wnt responsive promoter linked to luciferase gene in SW480 cells; experiment: Wnt Reporter Assay, SW480, 48 hours (Example 10); conditions: Homo sapiens, 10-0.0003 μM, read-out: EC50, inhibition of Wnt pathway activity
Method: SW480 cells (ATCC) were cultured in Dulbecco's modified Eagle's medium (DMEM, ThermoFisher) with 1% Glutamax (Life Technologies), 1% Penicillin-Streptomycin (Life Technologies), 150 ug/ml Hygromycin (Life Technologies) with 10% fetal bovine serum (FBS) (Hyclone) at 37° C., 5% CO2.
Wnt Reporter Assay. Human colorectal cancer cell line SW480, stably expressing the Wnt responsive promoter linked to luciferase gene, was plated overnight at 4×10e^4 cells/well in DMEM, high glucose, no glutamine, no phenol red (Life Technologies), 1% Glutamax (Life Technologies), 1% Sodium Pyruvate (Life Technologies), 1% Penicillin-Streptomycin (Life Technologies) with 1% Fetal Bovine Serum (Hyclone). Cells were then treated with DMSO (vehicle control) or COMPOUND 175 at 10 μM top concentration and half a log dilution up to 10 concentrations (10, 3, 1, 0.3, 0.1, 0.03, 0.01, 0.003, 0.001 and 0.0003 μM). Cells were incubated for 48 hours at 37° C. 15 μl of Bright-Glo (Bright-Glo™ Luciferase Assay System, Promega) was added to the cells and luminescence was measured using the Cytation 3 plate reader (Biotek). Data was normalized using the DMSO control and inhibition profile and EC50 was calculated using Prism 4 (GraphPad Software Inc, La Jolla, Calif., USA). Prism 4.0 was used to calculate the EC50 of the Wnt reporter inhibition assay.

[4] = system: primary human mesenchymal stem cells (hMSCs); experiment: Tenocyte Differentiation Assay, hMSCs, 7 days (Example 11); conditions: 168 h, 750-5.8 nM, read-out: EC50, induction of SCXA, TenacinC and Tenomodulin expression
Method: Primary human mesenchymal stem cells (hMSCs; Lonza Inc) were cultured in MSCGM™ Mesenchymal Stem Cell Growth Medium, with 10% FBS (Lonza) 10% fetal bovine serum (FBS) (Hyclone) at 37° C., 5% CO2. hMSCs were used between passage 2 and 6 and were never allowed to reach confluence to maintain a naive state.
Tenocyte Differentiation Assay. For tenocyte differentiation, hMSCs were plated in 384-well plates at 1×10^4 cells/well in Dulbecco's modified Eagle's medium (DMEM, ThermoFisher) with 1% fetal bovine serum (FBS) (Hyclone). Cells were then treated with DMSO (vehicle control) or compound 175 at 750 nM top concentration and 2-fold dilution up to 8 concentrations ([…], 166.6, 83.3, 41.7, 21.7, 10.8 and 5.8 nM) and incubated for 7 days at 37° C. A combination of BMP and FGF ([…], Peprotech, Inc.) was used as a positive control. […] Plates were imaged using a CX5 high-content imager (ThermoFisher) and the % of cells stained positive were determined using a cell scoring algorithm (ThermoFisher). Data was plotted and EC50 was calculated using Prism 5 (GraphPad Software Inc, La Jolla, Calif., USA). […]

Structure (SMILES): COc1ccc(NC(=O)c2n[nH]c3ccc(-c4cncc(CN5CCCCC5)c4)cc23)cn1 [compound 175, N-(6-Methoxypyridin-3-yl)-5-(5-(piperidin-1-ylmethyl)pyridin-3-yl)-1H-indazole-3-carboxamide]
- EC50 [1]: 25 nM
- EC50 [2]: 10400 nM
- EC50 [3]: 153 nM
- EC50 [4]: 139 to 189 nM
